From patent US7691858B2, “Kinase inhibitors and methods of use thereof” (TargeGen, Inc., priority 2006, dated 2010)
Entries after “also recorded” stand apart in the source; their conditions may differ.

Columns and labels:
histamine-induced edema = assay: Miles assay, histamine as agonist; assay type: in vivo, Sprague-Dawley rats; conditions: rats, Compound I pretreatment (1 mg/kg in FIG. 4)
Description: Sprague-Dawley rats were first injected IV with vehicle alone or test agent, followed by IV injection of Evans blue dye, followed by intradermal injections of saline and VEGF (200 ng/injection site) along both shaved flanks. […] The ability of test agents to influence edema induced by agonists other than VEGF was also tested. Compounds cited in this application inhibited edema formation induced using histamine as an agonist, for example, as shown below. The ability of test agent to influence vascular edema was tested as above, except that the ability to block edema was tested using either VEGF or histamine as the agonist (200 ng and 10 μg/injection site, respectively).

EphA2 = EphA2 (Homo sapiens, UniProt P29317); assay: Kinase panel screen; assay type: biochemical; conditions: Compound I and ATP 10 μM
PKCC, = target: T1, PKCC, (Homo sapiens, UniProt Q05513); assay: Kinase panel screen; assay type: biochemical; conditions: Compound I and ATP 10 μM
T1 construct: purchased Upstate USA or Invitrogen (commercial screening service)

MEK1 = target: T2, MEK1 (Homo sapiens, UniProt Q02750); assay: Kinase panel screen; assay type: biochemical; conditions: Compound I and ATP 10 μM
T2 construct: purchased Upstate USA or Invitrogen (commercial screening service)

Akt3 = target: T3, Akt3 (Homo sapiens, UniProt Q9Y243); assay: Kinase panel screen; assay type: biochemical; conditions: Compound I at 1 μM and ATP at the apparent Km
T3 construct: purchased Upstate USA or Invitrogen (commercial screening service)

EphB4 = target: T4, EphB4 (Homo sapiens, UniProt P54760); assay: Kinase panel screen; assay type: biochemical; conditions: Compound I and ATP 10 μM
T4 construct: purchased Upstate USA or Invitrogen (commercial screening service)

MEK2 = target: T5, MEK2 (Homo sapiens, UniProt P36507); assay: Kinase panel screen; assay type: biochemical; conditions: Compound I at 1 μM and ATP at the apparent Km
T5 construct: purchased Upstate USA or Invitrogen (commercial screening service)

Met = target: T6, Met (Homo sapiens, UniProt P08581); assay: Kinase panel screen; assay type: biochemical; conditions: Compound I and ATP 10 μM
T6 construct: purchased Upstate USA or Invitrogen (contract screening service)

FGFR2 = target: T7, FGFR2 (Homo sapiens, UniProt P21802); assay: Kinase panel screen; assay type: biochemical; conditions: Compound I and ATP 10 μM
T7 construct: purchased Upstate USA or Invitrogen (contract screening service)

MKK6 = MKK6 (Homo sapiens, UniProt P52564); assay: Kinase panel screen; assay type: biochemical; conditions: Compound I and ATP 10 μM
PRK2 = target: T8, PRK2 (Homo sapiens, UniProt Q16513); assay: Kinase panel screen; assay type: biochemical; conditions: Compound I and ATP 10 μM
T8 construct: purchased Upstate USA or Invitrogen (contract screening service)

Pyk2 = target: T9, Pyk2 (Homo sapiens, UniProt Q14289); assay: Kinase panel screen; assay type: biochemical; conditions: Compound I and ATP 10 μM
T9 construct: purchased Upstate USA or Invitrogen (contract screening service)

MSK1 = target: T10, MSK1 (Homo sapiens, UniProt O75582); assay: Kinase panel screen; assay type: biochemical; conditions: Compound I and ATP 10 μM
T10 construct: purchased Upstate USA or Invitrogen (contract screening service)

Ret = target: T11, Ret (Homo sapiens, UniProt P07949); assay: Kinase panel screen; assay type: biochemical; conditions: Compound I and ATP 10 μM
T11 construct: purchased Upstate USA or Invitrogen (contract screening service)

MSK2 = target: T12, MSK2 (Homo sapiens, UniProt O75676); assay: Kinase panel screen; assay type: biochemical; conditions: Compound I and ATP 10 μM
T12 construct: purchased Upstate USA or Invitrogen (contract screening service)

Blk = target: T13, Blk (Mus musculus, UniProt P16277); assay: Kinase panel screen; assay type: biochemical; conditions: Compound I and ATP 10 μM
T13 construct: purchased Upstate USA or Invitrogen (commercial screening service)

MST1 = target: T14, MST1 (Homo sapiens, UniProt Q13043); assay: Kinase panel screen; assay type: biochemical; conditions: Compound I and ATP 10 μM
T14 construct: purchased Upstate USA or Invitrogen (commercial screening service)

Bmx = target: T15, Bmx (Homo sapiens, UniProt P51813); assay: Kinase panel screen; assay type: biochemical; conditions: Compound I and ATP 10 μM
T15 construct: purchased Upstate USA or Invitrogen (commercial screening service)

MST2 = target: T16, MST2 (Homo sapiens, UniProt Q13188); assay: Kinase panel screen; assay type: biochemical; conditions: Compound I and ATP 10 μM
T16 construct: purchased Upstate USA or Invitrogen (commercial screening service)

BRK = target: T17, BRK (Homo sapiens, UniProt Q13882); assay: Kinase panel screen; assay type: biochemical; conditions: Compound I and ATP 10 μM
T17 construct: purchased Upstate USA or Invitrogen (commercial screening service)

cKit = target: T18, cKit (Homo sapiens, UniProt P10721); assay: Kinase panel screen; assay type: biochemical; conditions: Compound I and ATP 10 μM
T18 construct: purchased Upstate USA or Invitrogen (commercial screening service)

GSK3a = target: T19, GSK3a (Homo sapiens, UniProt P49840); assay: Kinase panel screen; assay type: biochemical; conditions: Compound I and ATP 10 μM
T19 construct: purchased Upstate USA or Invitrogen (commercial screening service)

NEK7 = target: T20, NEK7 (Homo sapiens, UniProt Q8TDX7); assay: Kinase panel screen; assay type: biochemical; conditions: Compound I and ATP 10 μM
T20 construct: purchased Upstate USA or Invitrogen (commercial screening service)

cRaf = target: T21, cRaf (Homo sapiens, UniProt P04049); assay: Kinase panel screen; assay type: biochemical; conditions: Compound I at 1 μM and ATP at the apparent Km
T21 construct: purchased Upstate USA or Invitrogen (commercial screening service)

Rsk3 = target: T22, Rsk3 (Homo sapiens, UniProt Q15349); assay: Kinase panel screen; assay type: biochemical; conditions: Compound I and ATP 10 μM
T22 construct: purchased Upstate USA or Invitrogen (commercial screening service)

PDGFRa = target: T23, PDGFRa (Homo sapiens, UniProt P16234); assay: Kinase panel screen; assay type: biochemical; conditions: Compound I and ATP 10 μM
T23 construct: purchased Upstate USA or Invitrogen (commercial screening service)

SAPK3 = target: T24, SAPK3 (Homo sapiens, UniProt P53778); assay: Kinase panel screen; assay type: biochemical; conditions: Compound I and ATP 10 μM
T24 construct: purchased Upstate USA or Invitrogen (commercial screening service)

CDK2 = target: T25, CDK2 (Homo sapiens, UniProt P24941); assay: Kinase panel screen; assay type: biochemical; conditions: Compound I and ATP 10 μM
T25 construct: purchased Upstate USA or Invitrogen (commercial screening service)

IR = target: T26, IR (Homo sapiens, UniProt P06213); assay: Kinase panel screen; assay type: biochemical; conditions: Compound I and ATP 10 μM
T26 construct: purchased Upstate USA or Invitrogen (commercial screening service)

PDK1 = target: T27, PDK1 (Homo sapiens, UniProt O15530); assay: Kinase panel screen; assay type: biochemical; conditions: Compound I and ATP 10 μM
T27 construct: purchased Upstate USA or Invitrogen (commercial screening service)

PKA = PKA (Homo sapiens, UniProt P17612); assay: Kinase panel screen; assay type: biochemical; conditions: Compound I and ATP 10 μM
INK3 = INK3 (Rattus norvegicus, UniProt P49187); assay: Kinase panel screen; assay type: biochemical; conditions: Compound I and ATP 10 μM
PKB 3 = PKB 3 (Homo sapiens, UniProt P31751); assay: Kinase panel screen; assay type: biochemical; conditions: read-out: Percent Control, PKB 3
CK18 = target: T28, CK18 (Homo sapiens, UniProt P48730); assay: Kinase panel screen; assay type: biochemical; conditions: Compound I and ATP 10 μM
T28 construct: purchased Upstate USA or Invitrogen (contract screening service)

PKCpi = target: T29, PKCpi (Homo sapiens, UniProt P05771); assay: Kinase panel screen; assay type: biochemical; conditions: Compound I and ATP 10 μM
T29 construct: purchased Upstate USA or Invitrogen (commercial screening service)

cSrc = target: T30, cSrc (Homo sapiens, UniProt P12931); assay: Kinase panel screen; assay type: biochemical; conditions: Compound I and ATP 10 μM
T30 construct: purchased Upstate USA or Invitrogen (commercial screening service)

PKCs = target: T31, PKCs (Homo sapiens, UniProt Q02156); assay: Kinase panel screen; assay type: biochemical; conditions: Compound I and ATP 10 μM
T31 construct: purchased Upstate USA or Invitrogen (commercial screening service)

DDR2 = target: T32, DDR2 (Homo sapiens, UniProt Q16832); assay: Kinase panel screen; assay type: biochemical; conditions: Compound I and ATP 10 μM
T32 construct: purchased Upstate USA or Invitrogen (commercial screening service)

EGFR = EGFR (Homo sapiens, UniProt P00533); assay: Kinase panel screen; assay type: biochemical; conditions: Compound I and ATP 10 μM

T23 sequence (P16234 24-1089): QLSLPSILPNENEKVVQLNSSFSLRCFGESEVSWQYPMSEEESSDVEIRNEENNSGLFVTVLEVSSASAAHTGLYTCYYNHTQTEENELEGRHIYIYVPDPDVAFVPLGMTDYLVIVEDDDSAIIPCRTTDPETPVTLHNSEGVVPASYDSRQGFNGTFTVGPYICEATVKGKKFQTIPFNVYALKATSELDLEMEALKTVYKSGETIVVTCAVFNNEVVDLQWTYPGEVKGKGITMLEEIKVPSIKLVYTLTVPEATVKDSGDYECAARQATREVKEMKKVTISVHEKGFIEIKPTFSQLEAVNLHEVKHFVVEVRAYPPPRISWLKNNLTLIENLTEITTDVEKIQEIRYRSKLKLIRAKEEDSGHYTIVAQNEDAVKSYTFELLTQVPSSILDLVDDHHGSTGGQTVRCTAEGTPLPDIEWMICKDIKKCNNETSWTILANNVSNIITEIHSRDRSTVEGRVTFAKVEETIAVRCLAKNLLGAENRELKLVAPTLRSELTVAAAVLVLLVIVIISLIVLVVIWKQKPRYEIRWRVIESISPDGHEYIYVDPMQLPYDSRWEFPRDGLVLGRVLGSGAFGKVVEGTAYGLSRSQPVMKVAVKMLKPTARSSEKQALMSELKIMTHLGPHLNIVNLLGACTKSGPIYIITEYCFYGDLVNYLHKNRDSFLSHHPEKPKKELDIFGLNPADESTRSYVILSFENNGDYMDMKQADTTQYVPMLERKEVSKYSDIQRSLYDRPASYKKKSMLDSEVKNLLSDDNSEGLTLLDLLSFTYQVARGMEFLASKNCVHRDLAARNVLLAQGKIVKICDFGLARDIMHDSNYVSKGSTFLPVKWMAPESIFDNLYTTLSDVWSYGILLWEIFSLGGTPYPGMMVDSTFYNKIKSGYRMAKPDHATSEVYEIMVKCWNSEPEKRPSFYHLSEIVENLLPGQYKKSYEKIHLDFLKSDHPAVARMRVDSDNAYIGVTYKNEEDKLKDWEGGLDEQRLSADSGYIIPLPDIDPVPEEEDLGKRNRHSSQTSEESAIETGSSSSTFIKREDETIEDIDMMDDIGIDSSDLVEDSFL
T2 sequence (Q02750 whole entry): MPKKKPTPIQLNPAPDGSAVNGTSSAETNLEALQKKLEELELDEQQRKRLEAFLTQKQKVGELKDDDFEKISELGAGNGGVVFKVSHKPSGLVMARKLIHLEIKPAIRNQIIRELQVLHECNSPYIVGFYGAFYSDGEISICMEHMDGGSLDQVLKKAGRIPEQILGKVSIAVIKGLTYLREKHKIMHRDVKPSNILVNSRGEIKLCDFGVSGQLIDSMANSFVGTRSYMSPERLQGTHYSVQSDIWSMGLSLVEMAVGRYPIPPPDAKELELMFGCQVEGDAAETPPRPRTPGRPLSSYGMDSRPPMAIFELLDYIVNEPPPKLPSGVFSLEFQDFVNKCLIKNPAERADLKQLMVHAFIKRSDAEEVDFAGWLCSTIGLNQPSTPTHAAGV
T9 sequence (Q14289 whole entry): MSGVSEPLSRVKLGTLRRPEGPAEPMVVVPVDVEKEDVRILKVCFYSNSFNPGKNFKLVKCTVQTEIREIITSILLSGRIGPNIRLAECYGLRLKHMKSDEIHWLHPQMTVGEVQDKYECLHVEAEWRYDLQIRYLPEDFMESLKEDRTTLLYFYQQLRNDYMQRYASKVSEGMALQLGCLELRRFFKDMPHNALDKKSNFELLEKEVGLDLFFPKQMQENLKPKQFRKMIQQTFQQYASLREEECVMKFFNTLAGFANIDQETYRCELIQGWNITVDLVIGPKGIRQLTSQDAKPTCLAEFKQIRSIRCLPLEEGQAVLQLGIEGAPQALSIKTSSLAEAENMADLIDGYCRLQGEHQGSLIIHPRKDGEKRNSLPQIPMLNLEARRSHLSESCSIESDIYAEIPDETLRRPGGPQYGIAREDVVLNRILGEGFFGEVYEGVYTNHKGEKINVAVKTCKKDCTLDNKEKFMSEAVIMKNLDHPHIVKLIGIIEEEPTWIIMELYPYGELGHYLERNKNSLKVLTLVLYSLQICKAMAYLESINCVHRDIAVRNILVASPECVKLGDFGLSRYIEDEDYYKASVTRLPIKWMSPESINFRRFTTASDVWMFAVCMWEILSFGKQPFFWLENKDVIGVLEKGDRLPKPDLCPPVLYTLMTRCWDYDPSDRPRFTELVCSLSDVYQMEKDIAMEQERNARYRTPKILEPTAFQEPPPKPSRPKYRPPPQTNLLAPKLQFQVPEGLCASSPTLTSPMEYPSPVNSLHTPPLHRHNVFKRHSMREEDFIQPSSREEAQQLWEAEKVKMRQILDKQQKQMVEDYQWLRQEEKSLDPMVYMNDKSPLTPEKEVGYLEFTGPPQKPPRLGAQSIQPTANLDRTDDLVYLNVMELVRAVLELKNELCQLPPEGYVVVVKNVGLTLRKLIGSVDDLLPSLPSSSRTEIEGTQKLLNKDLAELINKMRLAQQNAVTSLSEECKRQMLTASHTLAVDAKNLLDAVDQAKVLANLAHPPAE
T16 sequence (Q13188 whole entry): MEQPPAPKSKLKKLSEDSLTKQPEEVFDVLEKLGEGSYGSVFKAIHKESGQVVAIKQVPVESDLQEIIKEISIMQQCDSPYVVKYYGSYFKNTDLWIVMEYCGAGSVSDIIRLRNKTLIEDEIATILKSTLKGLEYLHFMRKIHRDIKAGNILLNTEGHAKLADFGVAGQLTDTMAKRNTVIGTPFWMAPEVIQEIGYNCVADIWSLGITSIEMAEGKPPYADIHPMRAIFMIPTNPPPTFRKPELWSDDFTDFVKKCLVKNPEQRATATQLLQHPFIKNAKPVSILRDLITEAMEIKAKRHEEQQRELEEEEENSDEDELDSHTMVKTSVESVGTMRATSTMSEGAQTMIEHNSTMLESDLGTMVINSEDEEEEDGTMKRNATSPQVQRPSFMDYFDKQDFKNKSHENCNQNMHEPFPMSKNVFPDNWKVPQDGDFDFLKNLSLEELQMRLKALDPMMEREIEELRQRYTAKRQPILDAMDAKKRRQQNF
T18 sequence (P10721 26-976): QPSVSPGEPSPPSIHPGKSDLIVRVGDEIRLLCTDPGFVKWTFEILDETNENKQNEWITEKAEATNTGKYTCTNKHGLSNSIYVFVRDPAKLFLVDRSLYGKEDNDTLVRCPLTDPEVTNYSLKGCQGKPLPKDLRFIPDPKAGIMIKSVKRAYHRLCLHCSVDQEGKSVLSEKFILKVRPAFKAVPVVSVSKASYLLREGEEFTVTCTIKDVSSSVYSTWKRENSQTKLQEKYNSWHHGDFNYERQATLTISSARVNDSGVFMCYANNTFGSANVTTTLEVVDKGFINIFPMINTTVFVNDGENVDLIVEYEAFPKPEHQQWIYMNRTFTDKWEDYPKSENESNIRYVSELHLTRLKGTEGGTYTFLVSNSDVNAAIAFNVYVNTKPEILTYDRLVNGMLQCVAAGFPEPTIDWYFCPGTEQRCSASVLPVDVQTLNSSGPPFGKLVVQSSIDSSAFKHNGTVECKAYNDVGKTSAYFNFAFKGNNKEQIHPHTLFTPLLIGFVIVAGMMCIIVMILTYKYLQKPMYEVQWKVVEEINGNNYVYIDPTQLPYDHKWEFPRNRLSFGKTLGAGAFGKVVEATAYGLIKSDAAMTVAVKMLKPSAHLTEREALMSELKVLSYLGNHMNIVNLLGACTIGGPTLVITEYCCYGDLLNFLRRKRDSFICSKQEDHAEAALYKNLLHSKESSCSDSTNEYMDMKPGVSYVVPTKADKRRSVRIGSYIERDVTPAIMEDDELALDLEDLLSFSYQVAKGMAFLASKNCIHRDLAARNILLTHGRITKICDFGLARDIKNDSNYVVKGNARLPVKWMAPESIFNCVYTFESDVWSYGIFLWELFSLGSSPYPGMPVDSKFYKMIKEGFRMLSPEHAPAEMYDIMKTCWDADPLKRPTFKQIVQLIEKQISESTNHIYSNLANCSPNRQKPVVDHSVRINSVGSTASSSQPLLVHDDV
T3 sequence (Q9Y243 whole entry): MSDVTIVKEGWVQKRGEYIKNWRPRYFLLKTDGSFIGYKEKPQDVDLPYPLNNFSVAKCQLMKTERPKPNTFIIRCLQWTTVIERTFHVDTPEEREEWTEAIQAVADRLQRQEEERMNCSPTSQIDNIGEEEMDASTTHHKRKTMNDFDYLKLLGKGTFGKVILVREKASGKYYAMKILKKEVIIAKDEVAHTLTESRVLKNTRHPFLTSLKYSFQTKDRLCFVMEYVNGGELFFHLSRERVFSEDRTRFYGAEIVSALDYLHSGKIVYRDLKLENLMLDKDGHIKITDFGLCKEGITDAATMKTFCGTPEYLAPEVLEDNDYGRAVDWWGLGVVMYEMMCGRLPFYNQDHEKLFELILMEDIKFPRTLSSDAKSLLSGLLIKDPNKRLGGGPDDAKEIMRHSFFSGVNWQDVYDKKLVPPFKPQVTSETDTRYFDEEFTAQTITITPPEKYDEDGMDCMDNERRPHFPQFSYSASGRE
T13 sequence (P16277 whole entry): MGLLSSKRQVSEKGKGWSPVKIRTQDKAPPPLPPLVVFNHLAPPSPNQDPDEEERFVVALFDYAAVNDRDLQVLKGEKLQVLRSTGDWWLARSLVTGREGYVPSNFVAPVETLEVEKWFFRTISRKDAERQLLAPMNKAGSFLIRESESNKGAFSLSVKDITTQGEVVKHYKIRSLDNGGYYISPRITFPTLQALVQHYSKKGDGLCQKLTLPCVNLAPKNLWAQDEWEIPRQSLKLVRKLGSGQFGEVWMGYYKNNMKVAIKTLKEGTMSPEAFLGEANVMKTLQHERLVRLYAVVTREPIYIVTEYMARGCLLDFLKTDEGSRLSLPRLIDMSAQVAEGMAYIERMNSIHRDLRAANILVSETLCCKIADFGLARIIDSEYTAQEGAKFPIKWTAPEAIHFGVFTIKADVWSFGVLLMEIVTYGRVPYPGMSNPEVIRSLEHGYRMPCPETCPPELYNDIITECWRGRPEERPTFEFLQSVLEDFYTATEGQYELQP

Nc1nc(N)c2nc(-c3cccc(O)c3)c(-c3cccc(O)c3)nc2n1 [Compound I, 6,7-bis-(3-hydroxyphenyl)-pteridine-2,4-diamine]
histamine-induced permeability / edema formation (histamine-induced edema): blocked; also recorded: reduced edema formation
Percent Control, EphA2 (EphA2): 29%
Percent Control, PKCC, (PKCC,): 99%
Percent Control, MEK1 (MEK1): 94%
Percent Control, Akt3* (Akt3): 98%
Percent Control, EphB4 (EphB4): 68%
Percent Control, MEK2* (MEK2): 94%
Percent Control, Met (Met): 41%
Percent Control, FGFR2 (FGFR2): 73%
Percent Control, MKK6 (MKK6): 75%
Percent Control, PRK2 (PRK2): 83%
Percent Control, Pyk2 (Pyk2): 68%
Percent Control, MSK1 (MSK1): 92%
Percent Control, Ret (Ret): 57%
Percent Control, MSK2 (MSK2): 100%
Percent Control, Blk (m) (Blk): 57%
Percent Control, MST1 (MST1): 107%
Percent Control, Bmx (Bmx): 58%
Percent Control, MST2 (MST2): 91%
Percent Control, BRK (BRK): 79%
Percent Control, cKit (cKit): 96%
Percent Control, GSK3a (GSK3a): 62%
Percent Control, NEK7 (NEK7): 99%
Percent Control, cRaf* (cRaf): 98%
Percent Control, Rsk3 (Rsk3): 90%
Percent Control, PDGFRa (PDGFRa): 86%
Percent Control, SAPK3 (SAPK3): 98%
Percent Control, CDK2 (second entry) (CDK2): 77%
Percent Control, IR (IR): 81%
Percent Control, PDK1 (PDK1): 90%
Percent Control, PKA (PKA): 93%
Percent Control, INK3(r) (INK3): 64%
remaining activity at 10 µM (PKB 3): 103%
Percent Control, CK18 (CK18): 24%
Percent Control, PKCpi (PKCpi): 90%
Percent Control, cSrc (cSrc): 53%
Percent Control, PKCs (PKCs): 69%
Percent Control, DDR2 (DDR2): 88%
Percent Control, EGFR (EGFR): 99%
